Counter-ions that a name gives are not always drawn. Like-named read-outs stand apart in the source and are kept apart here.
Key:
[1] = 2 ml 1N HCl, 5 hours
Experimental: (§1) 4.1 The stress stability of various salts of the clopidogrel was tested under different conditions. […] The following tests were conducted:
Then the flask is kept either at room temperature for 5 hours or at 80° C. for 5 hours.
(§2) The result is determined by means of HPLC.
(§3) In all cases, the HPLC measurements were carried out under the following conditions with UV detection: […]

[2] = for stress stability result by HPLC, alkaline: 2 ml 1N NaOH, 5 hours
Experimental: as §1
Then the flask is held either at room temperature for 5 hours or at 80° C. for 5 hours.
as §2, §3

[3] = 5 hours
Experimental: as §1
50 mg of the salt concerned are weighed into a volumetric flask (100 ml) and 2 ml of 3% H2O2 added. Then the flask is kept either at room temperature for 5 hours or at 80° C. for 5 hours. After the end of each experiment and, optionally, cooling to room temperature, the mobile phase is added up to 100 ml.
as §2, §3

[4] = 2 ml water, 5 hours
Experimental: as §1
50 mg of the salt concerned are weighed into a volumetric flask (100 ml) and 2 ml of water added. Then the flask is kept either at room temperature for 5 hours or at 80° C. for 5 hours. After the end of each experiment and, optionally, cooling to room temperature, the mobile phase is added up to 100 ml.
as §2, §3

[5] = Experimental: as §1
50 mg of the salt concerned are weighed into a volumetric flask (100 ml) and held at 80° C. for 20 hours. After the end of each experiment and cooling to room temperature, the mobile phase is added up to 100 ml.
as §2, §3

[6] = 75% relative humidity
[7] = 40 and 60° C., 75% relative humidity, 15 days, FIG. 4
[8] = tables 1 to 4

Row | Compound | stress stability result by HPLC, acidic ([1]; 80° C.) [%] | stress stability result by HPLC, acidic ([1]; room temperature) [%] | stress stability result by HPLC, alkaline ([2]; 80° C.) [%] | stress stability result by HPLC, alkaline ([2]; room temperature) [%] | stress stability result by HPLC, oxidising ([3]; 2 ml 3% H2O2, 80° C.) [%] | stress stability result by HPLC, oxidising ([3]; 2 ml 3% H2O2, room temperature) [%] | stress stability result by HPLC, neutral ([4]; 80° C.) [%] | stress stability result by HPLC, neutral ([4]; room temperature) [%] | stress stability result by HPLC, heat ([5]; solid salt, 80° C., 20 hours) [%] | content after 15 days (initial value normalised to 100%) ([6]; 40° C.) [%] | content after 15 days (initial value normalised to 100%) ([6]; 60° C.) [%] | stress stability result by HPLC, heat ([5]; 20 h) [%] | other results
1 | COC(=O)[C@H](c1ccccc1Cl)N1CCc2sccc2C1.O=S(=O)(O)c1ccccc1 [Clopidogrel Benzene Sulfonate (Amorphous)] | 2.36 | 0.64 | 25.04 | 0.64 | 2.94 | 0.83 | 3.01 | 0.85 | 11.52 | – | – | – | stability under alkaline conditions in comparison with the hydrogen sulfate and hydrochloride salts ([2]; alkaline conditions): considerably increased stability
2 | Clopidogrel besylate | – | – | – | – | – | – | – | – | – | 103.32 | 66.48 | – | –
3 | COC(=O)[C@H](c1ccccc1Cl)N1CCc2sccc2C1 [Clopidogrel Hydrogen Sulfate, clopidogrel hydrogen sulfate, reference compound] | – | – | – | – | – | – | – | – | – | – | – | 0.31 | –
4 | COC(=O)[C@H](c1ccccc1Cl)N1CCc2sccc2C1.O=S(=O)(O)c1ccccc1 [Clopidogrel Benzene Sulfonate (Crystalline)] | 2.76 | 0.14 | 28.05 | 0.14 | 3.98 | 0.13 | 4.18 | 0.19 | 4.52 | – | – | – | stability (decrease of content), compared with hydrogen sulfate and hydrochloride [7]: best stability values; stability in comparison with other salts (stress tests) [8]: even more stable than clopidogrel hydrogen sulfate
5 | Clopidogrel mesylate | – | – | – | – | – | – | – | – | – | 97.56 | 17.11 | – | –
6 | COC(=O)[C@H](c1ccccc1Cl)N1CCc2sccc2C1 [Clopidogrel Hydrochloride, clopidogrel hydrochloride, reference compound] | – | – | – | – | – | – | – | – | – | 93.66 | 42.54 | 32.43 | –

Reference: patent publication US20050256152A1, “Salt of a sulfonic acid containing clopidogrel and use thereof for the production of pharmaceutical formulations” (priority 2003, published 2005)
